The values below come from ChEMBL document CHEMBL1130292, “Novel cyanoguanidines with potent oral antitumour activity” (Bioorg Med Chem Lett, 1997).

The structures appear in SMILES notation.

For test [1], the system named is MCF7. The test can be described thus: Evaluated in vitro for antiproliferative activity against MCF-7 cell lines model of hormone dependent breast cancer. To be noted: Homo sapiens. It counts as functional, cell-based.
In test [2] the test system is NYH small cell lung cancer (Homo sapiens). The test can be described thus: Evaluated in vitro for antiproliferative activity against NYH cell lines derived from small cell lung cancer.
The subject of test [3] is NCI-H460. In words: Evaluated in vitro for antiproliferative activity against […] cell lines derived from large cell carcinoma of the lung. It counts as functional, cell-based. To be noted: Homo sapiens.
In test [4] the test system is Mus musculus. The test can be described thus: Percent median treated tumor size to that of control tumor size in NYH treatment model in mice (in vivo) after peroral administration of compound (20 mg/kg, number of tumors 8). It counts as functional.
The test system of test [5] is Mus musculus. In words: Percent median treated tumor size to that of control tumor size in NYH treatment model in mice (in vivo) after peroral administration of compound (20 mg/kg, number of tumors 11). The test is classed as functional.
Test [6] concerns Lewis lung carcinoma cell line. The test can be described thus: In vitro antiproliferative activity against Lewis cell lines. The test is classed as functional, cell-based. To be noted: Mus musculus.
Test [7] is described as follows: In vitro antiproliferative activity against Fibroblasts. It counts as functional.
Test [8] has as its system Mus musculus. The test can be described thus: Percent median treated tumor size to that of control tumor size in NYH treatment model in mice (in vivo) after subcutaneous administration of compound (10 mg/kg, number of tumors 7). The test is classed as functional.
The subject of test [9] is YOSHIDA. In words: In vitro antiproliferative activity against Yoshida cell lines. It counts as functional, cell-based. To be noted: Rattus norvegicus.
Test [10] relates to WALKER. The test can be described thus: In vitro antiproliferative activity against Walker cell line. The test is classed as functional, cell-based. The conditions noted are these: Rattus norvegicus.
Test [11] has as its system B16. The test can be described thus: In vitro antiproliferative activity against B16 cell lines. It counts as functional, cell-based. To be noted: Mus musculus.
Test [12] relates to Mus musculus. The test can be described thus: Percent median treated tumor size to that of control tumor size in NYH treatment model in mice (in vivo) after intraperitoneal administration of compound (0.5 mg/kg, number of tumors 8). The test is classed as functional.
Test [13] deals with Mus musculus. In words: Percent median treated tumor size to that of control tumor size in NYH treatment model in mice (in vivo) after peroral administration of compound (20 mg/kg, number of tumors 9). The test is classed as functional.
Test [14] deals with Mus musculus. In words: Percent median treated tumor size to that of control tumor size in NYH treatment model in mice (in vivo) after peroral administration of compound (20 mg/kg, number of tumors 20). It counts as functional.
Test [15] concerns Mus musculus. The test can be described thus: Percent median treated tumor size to that of control tumor size in NYH treatment model in mice (in vivo) after peroral administration of compound (25 mg/kg, number of tumors 9). It counts as functional.
In test [16] the test system is Mus musculus. In words: Percent median treated tumor size to that of control tumor size in NYH treatment model in mice (in vivo) after peroral administration of compound (50 mg/kg, number of tumors 13). The test is classed as functional.

With `N#CN/C(=N\CCCCCCOc1ccc([N+](=O)[O-])cc1)Nc1ccncc1`, the IC50 in test [1] came to 120 nM; in test [2] it was 52 nM; in [3], 590 nM.
For the molecule `COc1cccc(OCCCCCC/N=C(\NC#N)Nc2ccncc2)c1`, the half-inhibitory concentration (IC50) in [1] turned out to be 3.8 nM; in test [2], 1.9 nM; in test [3], 38 nM. For the same molecule, in test [4], the T/C is 42%.
For `COc1ccc(OCCCCCC/N=C(\NC#N)Nc2ccncc2)cc1`, the concentration for half-maximal inhibition (IC50) was 37 nM in test [1], 12 nM in [2] and 37 nM in test [3].
For the molecule `N#CN/C(=N\CCCCCCOc1cccc([N+](=O)[O-])c1)Nc1ccncc1`, the IC50 was 31 nM in test [1], 5.7 nM in [2] and 74 nM in test [3].
Consider `N#CN/C(=N\CCCCCCOc1ccccc1)Nc1ccncc1`, for which the IC50 came to 30 nM in test [1], 4.9 nM in [2] and 52 nM in [3].
On to `N#CN/C(=N\CCCCCCOc1ccccc1)Nc1cccnc1`, for which the IC50 was 230 nM in test [1], 52 nM in [2] and 530 nM in test [3].
In the case of `N#CN/C(=N\CCCCCCCOc1ccccc1)Nc1ccncc1`, the IC50 in test [1] worked out at 14 nM; in test [2], 0.6 nM; in test [3], 27 nM. For the same molecule, in test [5], the T/C was 35%.
`CC(=O)O[C@H]1C(=O)[C@@]2(C)[C@H]([C@H](OC(=O)c3ccccc3)[C@]3(O)C[C@H](OC(=O)[C@H](O)[C@@H](NC(=O)c4ccccc4)c4ccccc4)C(C)=C1C3(C)C)[C@]1(OC(C)=O)CO[C@@H]1C[C@@H]2O` [PACLITAXEL]: the half-maximal inhibitory concentration (IC50) in [6] came to 61 nM; in test [2] it was 4.3 nM; in test [7] it was 0.9 nM; in test [9] it was 7.9 nM; in [10], 150 nM; in test [11] it was 8 nM. In [8], this molecule gave a T/C of 48%.
Take `COc1ccccc1OCCCCCC/N=C(\NC#N)Nc1ccncc1`: the IC50 turned out to be 1.1 nM in test [1], 0.5 nM in test [2] and 21 nM in test [3].
`COc1cccc2c1C(=O)c1c(O)c3c(c(O)c1C2=O)C[C@@](O)(C(C)=O)C[C@@H]3O[C@H]1C[C@H](N)[C@H](O)[C@H](C)O1` [DAUNORUBICIN]: the IC50 is 61 nM in [6]; 39 nM in test [1]; 3.9 nM in test [2]; 7.4 nM in [9]; 47 nM in test [10]; 9.2 nM in [11]. In test [3], this molecule returned an IC50 of 3.5 nM. This molecule showed a T/C in test [12] of 105%.
Molecule `N#CN/C(=N\CCCCCCOc1cc(Cl)c(Cl)cc1Cl)Nc1ccncc1` gave a T/C in test [13] of 0%. Besides, the IC50 in test [1] stood at 4.4 nM; in test [2], 2.1 nM; in test [3], 13 nM.
For the molecule `N#CN/C(=N\CCCCCOc1ccc(Cl)cc1)Nc1ccncc1`, the figures for the 50% inhibitory concentration (IC50) in test [1], in test [2] and in test [3] were 53 nM, 6.3 nM and 590 nM, respectively.
Turning to `N#CN/C(=N\CCCCCCOc1ccccc1Cl)Nc1ccncc1`, the values for the IC50 in [1], in [2] and in [3] were 1.9 nM, 0.6 nM and 5.8 nM, respectively.
Turning to `N#CN/C(=N\CCCCCCCOc1ccccc1)Nc1cccnc1`, the values for the IC50 in test [1], in test [2] and in test [3] were 42 nM, 22 nM and 360 nM, respectively.
With `N#CN/C(=N\CCCCCCOc1cccc(Cl)c1)Nc1ccncc1`, the IC50 was found to be 8.8 nM in test [1], 6.1 nM in test [2] and 59 nM in [3].
On the same counts, the results for `N#CN/C(=N\CCCCCCOc1ccccc1[N+](=O)[O-])Nc1ccncc1` are 6.3 nM, 0.6 nM and 41 nM.
As for `N#CN/C(=N\CCCCCCCCOc1ccc(Cl)cc1)Nc1ccncc1`, the concentration for half-maximal inhibition (IC50) was 54 nM in test [1], 15 nM in test [2] and 480 nM in test [3].
As for `N#CN/C(=N\CCCCCCCOc1ccc(Cl)cc1)Nc1ccncc1`, the 50% inhibitory concentration (IC50) in [1] worked out at 56 nM; in test [2], 6.2 nM; in test [3], 69 nM.
For `N#CN=C(NCCCCCCOc1ccc(Cl)cc1)Nc1ccncc1` [CHS-828], the half-inhibitory concentration (IC50) in test [6] stood at 560 nM; in test [1], 31 nM; in test [2], 2.7 nM; in test [7], 40 nM; in [9] it was 140 nM; in [10] it was 500 nM. Moreover, the IC50 was found to be 280 nM in test [11] and 50 nM in test [3]. Besides, the T/C in test [14], in test [15] and in [16] was 0% throughout.
